Data on 2 compounds can be found in BindingDB's records for doi:10.1016/j.bmcl.2004.01.072 (Array Biopharma, 2004).

SMILES strings stand for the structures.

A short description of the assay: Inhibition of MDC-stimulated chemotaxis in transfected murine cell line expressing human chemokine receptor 4.

In the case of `Cc1c(Cl)cccc1CNC(=O)C[C@H]1S[C@H](c2ccc(Cl)cc2Cl)N(CC(=O)NCCCN2CCCCC2)C1=O` [2-[(2R,5R)-5-[(3-Chloro-2-methyl-benzylcarbamoyl)-methyl]-2-(2,4-dichloro-phenyl)-4-oxo-thiazolidin-3-yl]-N-(3-piperidin-1-yl-propyl)-acetamide], the half-maximal effective concentration (EC50) was determined as 2 µM.
`C[C@@H](NC(=O)C[C@H]1S[C@H](c2ccc(Cl)cc2Cl)N(CC(=O)NCCCN2CCCCC2)C1=O)c1cccc2ccccc12` [2-{(2R,5R)-2-(2,4-Dichloro-phenyl)-5-[((R)-1-naphthalen-1-yl-ethylcarbamoyl)-methyl]-4-oxo-thiazolidin-3-yl}-N-(3-piperidin-1-yl-propyl)-acetamide] yielded a 50% effective concentration (EC50) of 0.6 µM.
